Measured values as given in US12545653B2, “Compound as PPAR agonist and application thereof” (USA Elixiria Biotech Inc., priority 2019, dated 2026).
Values joined by “and” are separate entries in the source; they are usually repeats but may differ in a detail not shown here. Equal values may be shown once.

Assays:
PPARγ = target: T1, PPARγ (Homo sapiens, UniProt P37231); assay: In vitro transcriptional activity of PPARγ gene (PPRE-luciferase reporter, HEK 293 T cells); format: cell-based; conditions: HEK 293 T cells transfected with PPARγ expression and PPRE-luc plasmids, 21 hours; read-out: EC50 of PPARγ gene activation
T1 construct: expressed in transfected cells; host or cells: HEK 293 T cells
T1 sequence (P37231 1-505): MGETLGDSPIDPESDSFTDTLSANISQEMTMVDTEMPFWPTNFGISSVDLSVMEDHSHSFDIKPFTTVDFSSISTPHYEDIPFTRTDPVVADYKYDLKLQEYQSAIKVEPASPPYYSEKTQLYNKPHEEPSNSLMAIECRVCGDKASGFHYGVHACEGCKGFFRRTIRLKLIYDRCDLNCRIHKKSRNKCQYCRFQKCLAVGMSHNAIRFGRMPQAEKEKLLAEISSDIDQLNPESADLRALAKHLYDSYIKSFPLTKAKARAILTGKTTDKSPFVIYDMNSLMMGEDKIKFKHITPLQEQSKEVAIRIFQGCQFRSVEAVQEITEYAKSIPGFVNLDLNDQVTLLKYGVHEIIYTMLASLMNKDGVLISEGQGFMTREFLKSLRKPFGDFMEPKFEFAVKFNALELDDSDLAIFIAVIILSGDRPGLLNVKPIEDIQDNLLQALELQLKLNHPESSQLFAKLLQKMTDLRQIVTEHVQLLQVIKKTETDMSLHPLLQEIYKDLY

APP/PS1 transgenic mice = assay: Alzheimer's disease model, eight-arm radial water maze and brain gene expression; format: in vivo, mouse; conditions: for number of errors in water maze on the third day: 5 on the first day
db−/db− mice = assay: Diabetic peripheral neuropathy model, Von Frey threshold, sciatic nerve ROS and MDA; format: in vivo, mouse; conditions: in food 10 mg/kg body weight/day (pregabalin 30 mg/kg body weight/day); for level of MDA in the sciatic nerve after 10 week treatment / level of mitochondrial ROS in the sciatic nerve after 10 week treatment: compared with healthy control group; for mechanical pain threshold after 10 week treatment: compared with normal control group
Protocol: Male 5-6 week-old male db^−/db^− mice were used in the experiment, and their normoglycemic heterozygous littermates were used as controls. db^−/db^− is a commonly used type 2 diabetes animal model. The compounds was dissolved in DMSO and mixed into food pellets. The animals were given ad libitum access to the pellets, beginning from 8 to 9 weeks of age for 10 weeks. […] The method for detecting mice hindlimb hypersensitivity is performed using Von Frey filaments. […] The difference is significant with P<0.05. The increase of mitochondrial reactive oxygen species (ROS) in the sciatic nerve of mice, which in turn leads to the increase of intracellular malondialdehyde (MDA), is the etiology of this type of neuropathic pain. The efficacy of compound to treat the root cause of the disease was evaluated by measurement of the levels of MDA and mitochondrial ROS from the sciatic nerves.

[1] = 10 mg/kg body weight/day, 30 days, RT-PCR
[2] = 30 days in food, 10 mg/kg body weight/day (donepezil 3 mg/kg body weight/day)

For `CCc1ccc(CC/C=C/c2ccc3c(c2)C(=O)CC3)cc1` [ELB00824, (E)-6-(4-(4-ethylphenyl)but-1-en-1-yl)-2,3-dihydro-1H-inden-1-one], the EC50 (PPARγ) was < 6.4 µM and 4.7 µM, the “expression level of Bcl-xl gene in cerebral cortex and hippocampus compared with disease control group” value (APP/PS1 transgenic mice; [1]) was “doubled” and the “expression level of GluN2B gene in cerebral cortex and hippocampus compared with disease control group” value (APP/PS1 transgenic mice; [1]) was “doubled”. For the same compound, the “expression level of Gng11 gene in cerebral cortex and hippocampus compared with disease control group” value (APP/PS1 transgenic mice; [1]) was “tripled”, the “expression level of MnSOD gene in cerebral cortex and hippocampus compared with disease control group” value (APP/PS1 transgenic mice; [1]) was “tripled or quadrupled” and the “expression level of Prx-2 gene in cerebral cortex and hippocampus compared with disease control group” value (APP/PS1 transgenic mice; [1]) was “tripled or quadrupled”. For the same compound, the “expression level of klotho gene in cerebral cortex and hippocampus compared with disease control group” value (APP/PS1 transgenic mice; [1]) was 9 folds, the “number of errors in water maze on the third day” value (“number of errors in water maze” for short) (APP/PS1 transgenic mice; [2]) was roughly 1 and the “reduction in the number of errors (reference memory), third day compared with first day” value (APP/PS1 transgenic mice; 30 days in food, 10 mg/kg body weight/day (donepezil 3 mg/kg body weight/day), eight-arm water maze) was “significant”. The “level of MDA in the sciatic nerve after 10 week treatment” value (shortened to “level of MDA in the sciatic nerve”) (db−/db− mice) was “no difference”, the “level of mitochondrial ROS in the sciatic nerve after 10 week treatment” value (“level of mitochondrial ROS” below) (db−/db− mice) was “no difference” and the “mechanical pain threshold after 10 week treatment” value (from here on “mechanical pain threshold”) (db−/db− mice) was “no difference”.
In the case of `CCc1ccc(CC/C=C/c2ccc3c(c2)OCCC3=O)cc1` [ELB001045, (E)-7-(4-(4-ethylphenyl)but-1-en-1-yl)chroman-4-one], the EC50 (PPARγ) is reported as < 6.4 µM and 3.5 µM, the “number of errors in water maze” value (APP/PS1 transgenic mice; [2]) is reported as “comparable to that of ELB00824” and the “level of MDA in the sciatic nerve” value (db−/db− mice) is reported as “reduced”. For the same compound, the “level of mitochondrial ROS” value (db−/db− mice) was “reduced” and the “mechanical pain threshold” value (db−/db− mice) was “significantly improved”.
In the case of `CCc1ccc(CC/C=C/c2ccc3c(c2)C(=O)COC3)cc1` [ELB001046, (E)-6-(4-(4-ethylphenyl)but-1-en-1-yl)isochroman-4-one], the EC50 (PPARγ) is reported as less than 6.4 µM, the “number of errors in water maze” value (APP/PS1 transgenic mice; [2]) is reported as “comparable to that of ELB00824” and the “level of MDA in the sciatic nerve” value (db−/db− mice) is reported as “reduced”. For the same compound, the “level of mitochondrial ROS” value (db−/db− mice) was “reduced” and the “mechanical pain threshold” value (db−/db− mice) was “significantly improved”.
In the case of `CCc1ccc(OC/C=C/c2ccc3c(c2)C(=O)CC3)cc1` [ELB001115, (E)-6-(3-(4-ethylphenoxy)prop-1-en-1-yl)-2,3-dihydro-1H-inden-1-one], the EC50 (PPARγ) is reported as < 6.4 µM and 4.8 µM, the “number of errors in water maze” value (APP/PS1 transgenic mice; [2]) is reported as “comparable to that of ELB00824” and the “level of MDA in the sciatic nerve” value (db−/db− mice) is reported as “reduced”. The “level of mitochondrial ROS” value (db−/db− mice) was “reduced” and the “mechanical pain threshold” value (db−/db− mice) was “significantly improved”.
With `COc1ccc(CC/C=C/c2ccc3c(c2)C(=O)CC3)cc1` [ELB001116, (E)-6-(4-(4-methoxyphenyl)but-1-en-1-yl)-2,3-dihydro-1H-inden-1-one] the EC50 (PPARγ) was less than 6.4 µM, the “number of errors in water maze” value (APP/PS1 transgenic mice; [2]) was “comparable to that of ELB00824” and the “level of MDA in the sciatic nerve” value (db−/db− mice) was “no difference”. The “level of mitochondrial ROS” value (db−/db− mice) was “no difference” and the “mechanical pain threshold” value (db−/db− mice) was “no difference”.
With `CCc1ccc(CC/C=C/c2ccc3c(c2)C(=O)CC3)nc1` [ELB001125, (E)-6-(4-(5-ethylpyridin-2-yl)but-1-en-1-yl)-2,3-dihydro-1H-inden-1-one] the EC50 (PPARγ) was less than 6.4 µM, the “number of errors in water maze” value (APP/PS1 transgenic mice; [2]) was “comparable to that of ELB00824” and the “level of MDA in the sciatic nerve” value (db−/db− mice) was “reduced”. The “level of mitochondrial ROS” value (db−/db− mice) was “reduced” and the “mechanical pain threshold” value (db−/db− mice) was “significantly improved”.
